Results: the supplement of paper PMC10307832

Experiments:
Test in all cases: relative viability (nuclei count vs DMSO), 5 days (fraction); higher = more cells survive
BAY61-3606 + Trametinib = compound: COC1=C(C=C(C=C1)C2=CC3=NC=CN3C(=N2)NC4=C(C=CC=N4)C(=O)N)OC [BAY61-3606] + CC(=O)Nc1cccc(-n2c(=O)n(C3CC3)c(=O)c3c(Nc4ccc(I)cc4F)n(C)c(=O)c(C)c32)c1 [Trametinib] (partner 0.02 µM)
Summary of the method: (§1)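 Cells from lung cancer lines were seeded into 1536-well plates and, one day later, dosed by pin tool. Treatments were either a single drug or a fixed dose of an anchor drug with five library-drug doses (not always all listed) in √10 steps. After 5 days, nuclei were stained in a one-step fixation (final 0.05% Triton X-100, 1% formaldehyde, 1 ug/ml Hoechst) and counted on 4× images, and relative viability is the treated-to-vehicle nuclei ratio, as the median of duplicate plates.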

BAY61-3606 + Luminespib = compound: COC1=C(C=C(C=C1)C2=CC3=NC=CN3C(=N2)NC4=C(C=CC=N4)C(=O)N)OC [BAY61-3606] + CCNC(=O)c1noc(-c2cc(C(C)C)c(O)cc2O)c1-c1ccc(CN2CCOCC2)cc1 [Luminespib] (partner 0.01 µM)
Summary of the method: as §1

Doxorubicin + Pictilisib = compound: COc1cccc2c1C(=O)c1c(O)c3c(c(O)c1C2=O)C[C@@](O)(C(=O)CO)C[C@@H]3O[C@H]1C[C@H](N)[C@H](O)[C@H](C)O1 [Doxorubicin] + CS(=O)(=O)N1CCN(Cc2cc3nc(-c4cccc5[nH]ncc45)nc(N4CCOCC4)c3s2)CC1 [Pictilisib] (partner 1 µM)
Summary of the method: as §1

Doxorubicin + Olaparib = compound: COc1cccc2c1C(=O)c1c(O)c3c(c(O)c1C2=O)C[C@@](O)(C(=O)CO)C[C@@H]3O[C@H]1C[C@H](N)[C@H](O)[C@H](C)O1 [Doxorubicin] + O=C(c1cc(Cc2n[nH]c(=O)c3ccccc23)ccc1F)N1CCN(C(=O)C2CC2)CC1 [Olaparib] (partner 8 µM)
Summary of the method: as §1

| Cell Line | relative viability (BAY61-3606 + Trametinib; first compound 0.02 µM) | relative viability (BAY61-3606 + Trametinib; first compound 0.06325 µM) | relative viability (BAY61-3606 + Trametinib; first compound 0.2 µM) | relative viability (BAY61-3606 + Trametinib; first compound 0.6325 µM) | relative viability (BAY61-3606 + Trametinib; first compound 2 µM) | relative viability (BAY61-3606 + Luminespib; first compound 0.02 µM) | relative viability (BAY61-3606 + Luminespib; first compound 0.06325 µM) | relative viability (BAY61-3606 + Luminespib; first compound 0.2 µM) | relative viability (BAY61-3606 + Luminespib; first compound 0.6325 µM) | relative viability (BAY61-3606 + Luminespib; first compound 2 µM) | relative viability (Doxorubicin + Pictilisib; first compound 0.001 µM) | relative viability (Doxorubicin + Pictilisib; first compound 0.003162 µM) | relative viability (Doxorubicin + Pictilisib; first compound 0.01 µM) | relative viability (Doxorubicin + Pictilisib; first compound 0.03162 µM) | relative viability (Doxorubicin + Pictilisib; first compound 0.1 µM) | relative viability (Doxorubicin + Olaparib; first compound 0.001 µM) | relative viability (Doxorubicin + Olaparib; first compound 0.003162 µM) | relative viability (Doxorubicin + Olaparib; first compound 0.01 µM) | relative viability (Doxorubicin + Olaparib; first compound 0.03162 µM) | relative viability (Doxorubicin + Olaparib; first compound 0.1 µM) |
| --- | --- | --- | --- | --- | --- | --- | --- | --- | --- | --- | --- | --- | --- | --- | --- | --- | --- | --- | --- | --- |
| 201T | 0.728 | 0.712 | 0.771 | 0.753 | 0.735 | 1.11 | 1.03 | 1.04 | 1.16 | 1.05 | 0.666 | 0.648 | 0.658 | 0.719 | 0.68 | 0.849 | 0.825 | 0.837 | 0.856 | 0.831 |
| A549 | – | – | – | – | – | – | – | – | – | – | 0.49 | 0.355 | 0.201 | 0.0558 | 0.0454 | – | 0.437 | 0.375 | 0.275 | 0.264 |
| A-427 | 0.902 | 0.755 | 0.782 | 0.798 | 0.817 | 0.842 | 0.928 | 0.86 | 0.965 | 0.808 | 0.664 | 0.818 | 0.723 | 0.636 | 0.791 | 0.764 | 0.672 | 0.718 | 0.373 | 0.285 |
| ABC-1 | – | – | – | – | – | 0.985 | 0.549 | 0.529 | 0.81 | 0.338 | 0.849 | 0.642 | 0.566 | 0.317 | 0.356 | 0.946 | 0.761 | 0.723 | 0.525 | 0.306 |
| BEN | 1.21 | 1.01 | 1.11 | 1.21 | 1.2 | 0.464 | 0.349 | 0.253 | 0.321 | 0.407 | 0.7 | 0.509 | 0.546 | 0.472 | 0.493 | 1.07 | 1.09 | 0.897 | 0.938 | 1.13 |
| CAL-12T | 0.359 | 0.372 | 0.346 | 0.347 | 0.229 | 0.49 | 0.439 | 0.209 | 0.789 | 0.187 | 0.508 | 0.559 | 0.402 | 0.343 | 0.25 | 0.7 | 0.668 | 0.559 | 0.212 | 0.191 |
| COR-L23 | 0.725 | 0.668 | 0.635 | 0.751 | 0.558 | 0.672 | 0.728 | 0.674 | 0.806 | 0.372 | 0.928 | 1.04 | 0.651 | 0.199 | 0.121 | 0.361 | 0.38 | 0.29 | 0.147 | 0.131 |
| COR-L 105 | 0.474 | 0.414 | 0.463 | 0.429 | 0.436 | 0.827 | 0.689 | 0.75 | 0.76 | 0.503 | 0.463 | 0.444 | 0.355 | 0.283 | 0.277 | 0.748 | 0.698 | 0.668 | 0.497 | 0.468 |
| Calu-6 | – | – | – | – | – | – | – | – | – | – | 0.919 | 0.799 | 0.516 | 0.263 | 0.172 | 0.554 | 0.536 | 0.457 | 0.298 | 0.197 |
| ChaGo-K-1 | 0.947 | 0.893 | 0.921 | 0.872 | 0.939 | 0.611 | 0.606 | 0.587 | 0.554 | 0.436 | 0.971 | 0.506 | 0.621 | 0.369 | 0.238 | 0.437 | 0.408 | 0.352 | 0.486 | 0.442 |
| EBC-1 | – | – | – | – | – | – | – | – | – | – | 0.388 | 0.405 | 0.295 | 0.195 | 0.11 | 0.682 | 0.735 | 0.73 | 0.54 | 0.284 |
| EKVX | 0.497 | 0.308 | 0.303 | 0.361 | 0.365 | 0.999 | 0.927 | 0.844 | 0.897 | 0.843 | 0.453 | 0.444 | 0.399 | 0.434 | 0.429 | 0.862 | 0.882 | 0.767 | 0.849 | 0.734 |
| EMC-BAC-2 | 0.938 | 0.883 | 0.944 | 1.17 | 1.05 | 1.21 | 1.15 | 1.17 | 1.25 | 0.904 | 0.685 | 0.528 | 0.538 | 0.477 | 0.338 | 0.487 | 0.367 | 0.355 | 0.317 | 0.302 |
| EPLC-272H | 0.309 | 0.275 | 0.281 | 0.294 | 0.263 | 0.33 | 0.424 | 0.801 | 0.131 | 0.138 | 0.308 | 0.288 | 0.354 | 0.33 | 0.336 | 0.767 | 1.01 | 0.832 | 0.453 | 0.261 |
| H3255 | 0.688 | 0.538 | 0.598 | 0.715 | 0.587 | 0.966 | 0.896 | 0.951 | 1.06 | 0.961 | 0.481 | 0.482 | 0.415 | 0.452 | 0.48 | 0.541 | 0.553 | 0.541 | 0.48 | 0.424 |
| HARA | 0.6 | 0.52 | 0.781 | 0.724 | 0.54 | 0.672 | 0.462 | 0.681 | 0.682 | 0.352 | 0.444 | 0.439 | 0.434 | 0.357 | 0.294 | 1.05 | 0.8 | 0.722 | 0.718 | 0.759 |
| HCC-15 | 0.425 | 0.375 | 0.385 | 0.382 | 0.423 | 0.412 | 0.302 | 0.303 | 0.263 | 0.377 | 0.663 | 0.759 | 0.614 | 0.467 | 0.478 | 0.731 | 0.657 | 0.692 | 0.522 | 0.491 |
